# Patent US20040076659A1, “Additive for livestock feeds” (priority 1994, published 2004)
# Test system: rumen cellulase activity
# Assay: In vitro cellulose degradation by rumen bacterial inoculum
# Assay type: biochemical, cows
# Details: 0.25% surfactant in reaction mixture; regression on initial 24 hr
# Procedure: A bacterial fraction, largely free of protozoa, was prepared for the fermentation assays by using the procedure of Forsberg, “Some Effects of Arsenic on the Rumen Microflora; An In Vitro Study,” Can. J. Microbiol. 24:36 (1978). The digesta inoculum was resuspended and washed twice in an equivalent amount of 0.1 M phosphate buffer pH 6.8 to the rumen fluid. The inoculum provided both, the substrate and the enzyme used for cellulose degradation assay. Incubation periods were 0, 1.5, 3, 6, 12, 24, and 48 hr. Other incubation conditions were similar to those outlined in experiment 1 above. However, cellulose was determined by the method of Updergraff, supra, for the in vivo digestibility trial. The optimal level of Tween 80 obtained was adopted here and followed.
substance,measurement,value
polyoxyethylene sorbitan monoleate [Tween 80],Initial rate of cellulose degradation,1.04c (0.32) μg/ml/hr
